Here are results for six molecules from US10946016B2, “Solid forms of an epidermal growth factor receptor kinase inhibitor” (Celgene CAR LLC, priority 2012, dated 2021).

Holding throughout (type): physicochemical
A short description of data set [1]: Aqueous solubility: slurries in deionised water, HPLC. The settings on record: slurry in deionised water shaken ca. 24 hours; for aqueous solubility: assessment in words. As for the experimental part:
Slurries of all each polymorphic form were created in deionised water and shaken for ca. 24 hours. The resulting solid was then analysed by HPLC to determine the concentration of material dissolved.

Data set [2] can be described thus: Stability at 40° C./75% RH for 1 week and 2 weeks (XRPD and HPLC). The settings on record: open container. As to the method: Samples of each form were exposed to an environment of 40° C./75% RH for 1 week and 2 week periods to determine stability. Resulting solids were analysed by XRPD and HPLC to establish if any changes had occurred.
Data set [3] in a line: XRPD after heating or drying (solid form conversion). As to the method:
X-ray powder diffraction (XRPD) analysis was carried out on a Siemens D5000, scanning the samples between 3 and 30 or 50° 2-theta. For samples <100 mg, ca. 5-10 mg of sample was gently compressed onto a glass slide which fitted into the sample holder. For samples >100 mg, ca. 100 mg of sample was gently compressed into a plastic sample holder, so that the sample surface was smooth and just above the level of the sample holder. Measurements were made as follows: In order to determine the relationship between Forms A and B, a sample of Form B was heated to 120° C. and then XRPD analysis was carried out. […] To determine whether Form C remains the same after losing the solvent present, a sample of Form C was heated to 120° C. (i.e., just past the temperature at which the solvent is removed) and then XRPD analysis was carried out. […] In order to determine whether Form E remains the same after losing the solvent present, a sample of Form E was heated to 120° C. (i.e., just past the temperature at which the solvent is lost) and then XRPD analysis was carried out. […] In order to determine whether Form F remains the same after losing the solvent present, a sample of Form F was heated to 120° C. (i.e., just past the temperature at which the solvent is lost) and then XRPD analysis was carried out. […] To examine whether Form H changes to Form A after heating to 115° C. (point after the solvent loss), the Form H material was heated to 115° C. and XRPD analysis and DSC analysis were then carried out. […] The DSC analysis (FIG. 49) indicated overlapping endotherms between ca. 115-135° C., followed by an exotherm at peak 143.9° C., likely indicating a polymorphic transition. A final endotherm was present at onset 202.7° C. (peak 206.6° C.) corresponding with the Form A melt.

Data set [4] is described as follows: Dynamic vapour sorption (DVS) with post DVS XRPD. The settings on record: for DVS water uptake: between 20 and 70% RH. As for the experimental part: For dynamic vapour sorption (DVS), approximately 10 mg of sample was placed into a wire mesh vapour sorption balance pan and loaded into a DVS-1 dynamic vapour sorption balance by Surface Measurement Systems. The sample was subjected to a ramping profile from 20-90% relative humidity (RH) at 10% increments, maintaining the sample at each step until a stable weight had been achieved (99.5% step completion). After completion of the sorption cycle, the sample was dried using the same procedure, but all the way down to 0% RH and finally taken back to the starting point of 20% RH. The weight change during the sorption/desorption cycles were plotted, allowing for the hygroscopic nature of the sample to be determined.

Where [5] appears, read: ambient under vacuum 7 days, then 2 days at 40° C.

Entries after “also recorded” stand apart in the source; their conditions may differ.

On to `C=CC(=O)Nc1cccc(Nc2nc(Nc3ccc(N4CCN(C(C)=O)CC4)cc3OC)ncc2C(F)(F)F)c1` [Form B, N-(3-(2-(4-(4-acetylpiperazin-1-yl)-2-methoxyphenylamino)-5-(trifluoromethyl)pyrimidin-4-ylamino)phenyl)acrylamide], for which, in data set [1], the “detection by HPLC analysis for the aqueous solubility” value (“detection by HPLC analysis” for short) is “could not be detected” and the aqueous solubility result was “poor”. Besides, in data set [2] (1 week), the “HPLC purity after storage” value is reported as “ca. 96.8%” and the “XRPD analysis after storage” value is “predominantly amorphous”. In data set [2] (2 week), the “HPLC purity after storage” value is “ca. 95.9%” and the “XRPD analysis after storage” value is on record as “predominantly amorphous”. Also, in data set [3] (heated to 120° C.), the XRPD after heating result is “mixture of Form B and Form A”. Moreover, in data set [3] (heated to 160° C.), the XRPD after heating entry was “converted predominantly to Form A”. For the same molecule, in data set [4], the “Post DVS XRPD (solid form)” value is reported as “remained Form B”, the “hygroscopicity (DVS)” value was “non-hygroscopic” and the DVS water uptake is listed as 0.74%.
For `C=CC(=O)Nc1cccc(Nc2nc(Nc3ccc(N4CCN(C(C)=O)CC4)cc3OC)ncc2C(F)(F)F)c1` [Form C, N-(3-(2-(4-(4-acetylpiperazin-1-yl)-2-methoxyphenylamino)-5-(trifluoromethyl)pyrimidin-4-ylamino)phenyl)acrylamide], in data set [1], the “detection by HPLC analysis” value is listed as “could not be detected” and the aqueous solubility entry is “poor”. Moreover, in data set [2] (1 week), the “HPLC purity after storage” value is given as “ca. 97.1%” and the “XRPD analysis after storage” value is recorded as “converted to Form A with some loss in crystallinity”. In data set [2] (2 week), the “HPLC purity after storage” value is recorded as “ca. 96.8%” and the “XRPD analysis after storage” value is given as “poorly crystalline with the peaks present corresponding with Form A”. Besides, the XRPD after drying result in data set [3] (setting [5]) is “some loss in crystallinity and converted to Form A”. The XRPD after heating entry in data set [3] (heated to 120° C.) was “converted to Form A”. In data set [4], the DVS analysis observation entry is reported as “contain solvent, which is lost as the relative humidity is increased” and the “Post DVS XRPD (solid form)” value is on record as “converted to Form A”.
Turning to `C=CC(=O)Nc1cccc(Nc2nc(Nc3ccc(N4CCN(C(C)=O)CC4)cc3OC)ncc2C(F)(F)F)c1` [Form D, N-(3-(2-(4-(4-acetylpiperazin-1-yl)-2-methoxyphenylamino)-5-(trifluoromethyl)pyrimidin-4-ylamino)phenyl)acrylamide], in data set [1], the “detection by HPLC analysis” value is on record as “could not be detected” and the aqueous solubility entry is on record as “extremely poor”. Besides, in data set [2] (1 week), the “HPLC purity after storage” value was “ca. 96.5%” and the “XRPD analysis after storage” value is on record as “converted completely to Form B with some loss in crystallinity”. For the same molecule, in data set [2] (2 week), the “HPLC purity after storage” value is reported as “ca. 95.5%” and the “XRPD analysis after storage” value is “poorly crystalline with the peaks present corresponding with Form B”. In addition, in data set [4], the DVS analysis observation entry is recorded as “contain solvent which is lost as the relative humidity is increased” and the “Post DVS XRPD (solid form)” value was “converted completely to Form B”.
In the case of `C=CC(=O)Nc1cccc(Nc2nc(Nc3ccc(N4CCN(C(C)=O)CC4)cc3OC)ncc2C(F)(F)F)c1` [Form E, N-(3-(2-(4-(4-acetylpiperazin-1-yl)-2-methoxyphenylamino)-5-(trifluoromethyl)pyrimidin-4-ylamino)phenyl)acrylamide], in data set [1], the “detection by HPLC analysis” value is recorded as “could not be detected” and the aqueous solubility result is recorded as “extremely poor”. In addition, in data set [2] (1 week), the “HPLC purity after storage” value is “ca. 97.7%” and the “XRPD analysis after storage” value is reported as “predominantly amorphous with visible peaks present corresponding with Form A”. Also, in data set [2] (2 week), the “HPLC purity after storage” value is given as “ca. 97.3%” and the “XRPD analysis after storage” value was “predominantly amorphous with visible peaks present corresponding with Form A”. The XRPD after drying result in data set [3] (setting [5]) is “lost some crystallinity and converted to Form A”. Further, the XRPD after heating entry in data set [3] (heated to 120° C.) is given as “converted to Form A”. In addition, in data set [4], the “Post DVS XRPD (solid form)” value is on record as “converted to Form A” and the DVS water uptake turned out to be 0.25%.
For the molecule `C=CC(=O)Nc1cccc(Nc2nc(Nc3ccc(N4CCN(C(C)=O)CC4)cc3OC)ncc2C(F)(F)F)c1` [Form F, N-(3-(2-(4-(4-acetylpiperazin-1-yl)-2-methoxyphenylamino)-5-(trifluoromethyl)pyrimidin-4-ylamino)phenyl)acrylamide], in data set [1], the “detection by HPLC analysis” value is given as “could not be detected; also recorded: below the limit of quantification” and the aqueous solubility result is listed as “poor”. In addition, in data set [2] (1 week), the “HPLC purity after storage” value is reported as “ca. 96.8%” and the “XRPD analysis after storage” value is recorded as “converted to Form A, with some loss in crystallinity”. In data set [2] (2 week), the “HPLC purity after storage” value was “ca. 96.3%” and the “XRPD analysis after storage” value is “partially crystalline with peaks present corresponding with Form A”. In addition, the XRPD after drying entry in data set [3] (setting [5]) was “lost some crystallinity and converted predominantly to Form A”. Further, the XRPD after heating entry in data set [3] (heated to 120° C.) is “converted predominantly to Form A”. Besides, in data set [4], the DVS analysis observation result is recorded as “contain solvent, which is lost as the relative humidity is increased” and the “Post DVS XRPD (solid form)” value is listed as “converted predominantly to Form A (traces of Form F remaining)”.
For `C=CC(=O)Nc1cccc(Nc2nc(Nc3ccc(N4CCN(C(C)=O)CC4)cc3OC)ncc2C(F)(F)F)c1` [Form G, N-(3-(2-(4-(4-acetylpiperazin-1-yl)-2-methoxyphenylamino)-5-(trifluoromethyl)pyrimidin-4-ylamino)phenyl)acrylamide], the aqueous solubility entry in data set [1] is on record as “poor”. In data set [2] (1 week), the “HPLC purity after storage” value is on record as “ca. 96.8%” and the “XRPD analysis after storage” value is given as “converted predominantly to Form A, with some loss in crystallinity”. In addition, in data set [2] (2 week), the “HPLC purity after storage” value is given as “ca. 96.2%” and the “XRPD analysis after storage” value was “converted predominantly to Form A, with some loss in crystallinity”. Moreover, the XRPD after drying result in data set [3] (80° C. for 4 days) was “converted to Form A”. The XRPD after drying entry in data set [3] (setting [5]) was “converted to Form A”. In addition, in data set [4], the DVS analysis observation result is given as “contain significant amounts of solvent that are lost as the relative humidity is increased” and the “Post DVS XRPD (solid form)” value is “converted to Form A”.
